Earlier results on six molecules are cited in patent US5648564A, “Process for the formation, isolation and purification of comestible xanthophyll crystals from plants” (Kemin Industries, Inc., priority 1995, dated 1997).

In one data set the test system is rat. Particulars: oral.
The conditions of data set [1]: consumption of lutein and zeaxanthin (reported jointly).

As to `ClC(Cl)Cl` [Chloroform], the LD50 in the data set on rat is 2.18 mL/kg.
Take `CCOC(C)=O` [Ethyl Acetate]: the LD50 with rat is 11.3 mL/kg.
In the case of `CC(O)CO` (stereo not drawn) [Propylene Glycol, 1,2-propanediol], the LD50 in the data set on rat is 25 mL/kg.
On to `c1ccncc1` [Pyridine], for which the LD50 with rat is 1.58 mL/kg.
Consider `CC1=C[C@H](O)CC(C)(C)[C@H]1/C=C/C(C)=C/C=C/C(C)=C/C=C/C=C(C)/C=C/C=C(C)/C=C/C1=C(C)C[C@@H](O)CC1(C)C` [lutein], for which the “reduction in age-related macular degeneration” value in data set [1] is reported as 40%.
With `CC1=C(/C=C/C(C)=C/C=C/C(C)=C/C=C/C=C(C)/C=C/C=C(C)/C=C/C2=C(C)C[C@@H](O)CC2(C)C)C(C)(C)C[C@H](O)C1` [zeaxanthin], the “reduction in age-related macular degeneration” value in data set [1] is reported as 40%.
